Results on six molecules are retold here after PMC8346002 (International Journal of Molecular Sciences, 2021).

Series [1] has as its target T1, cAMP receptor protein (CRP) (Escherichia coli, UniProt P0ACJ8).
T1 construct: inferred from pET21a(+) and Ni-NTA/imidazole purification); made in house; host or cells: E. coli BL21 (DE3), pET21a(+)
Type of series: binding. To be noted: CRP 2 µM, 25 °C, 50 mM MOPS pH 7.5, excitation 280 nm, ΔF(area) 334-348 nm; read-out: KD for nucleotide ligands on CRP. The procedure: Figure 1 Binding of ppGpp to CRP determined by fluorescence spectroscopy. (a) The fluorescence Spectra of CRP in the presence of ppGpp. Following excitation at 280 nm, the emission spectra of CRP (2 µM) were recorded at 25 °C. (b) The fluorescence change (ΔF(area)) against ppGpp concentrations. Instead of using the fluorescence change at a fixed wavelength, the area below the spectra between 334 and 348 nm was used, and the area decrease (ΔF(area)) upon addition of ppGpp was utilized to calculate the extent of fluorescence quenching.
(§1) Fluorescence intensities were measured at 25 °C using a F-4500 Fluorescence Spectrophotometer (Hitachi corporation). H-NS and CRP in 50 mM MOPS buffer, pH 7.5 were excited at 280 nm and the emission spectra were recorded from 290 to 400 nm under various ligand concentrations. The dissociation constant, KD, was calculated using the equation, ΔF/ΔFM = (([L] + [P] + KD) − (([L] + [P] + KD)^2 − 4·[L]·[P])^0.5)/2·[P], where ΔF, ΔFM, [P], and [L] represent fluorescence change, the maximal fluorescence change, total protein concentration, and total ligand concentration, respectively. The area below the spectra in the 15 nm ranges was used to calculate ΔF in this study. The corrections for the inner filter effect, introduced by the ligands, was performed using the formula, Fcor = F × 10^(P + ΔA)/2, where F and Fcor denote fluorescence intensity before and after the correction, whereas P and ΔA indicate the initial sample absorption at the excitation wavelength and the change in absorption introduced by ligands, respectively.

The target in series [2] is T2, histone-like nucleoid structuring protein (H-NS) (Escherichia coli, UniProt P0ACF8).
T2 construct: inferred from Ni-NTA/imidazole purification; made in house; host or cells: E. coli BL21 (DE3); over-expressing strain obtained from Dr. Hyon E. Choy, originally from Dr. Bremer's laboratory
As to the kind of experiment: biochemical. Type of series: binding. The procedure: Figure 3 Determination of the dissociation constant KD for ppGpp on H-NS by fluorescence spectrometry. (a) The emission spectra of H-NS in the presence of ppGpp. While H-NS (10µM) was excited at 280 nm, the emission spectra in the presence of various concentrations of ppGpp were recorded at 25 °C. (b) The difference in fluorescence (ΔF(area)) between 322 and 336 nm against ppGpp concentrations.
as §1

Series [3] deals with the molecule itself. As to the kind of experiment: SEC; size exclusion chromatography of isolated CRP, single peak; data not shown. (SEC sorts molecules by how far they enter the pores of the column.)
The mark [4] stands for this setting: H-NS 10 µM, 25 °C, 50 mM MOPS pH 7.5, excitation 280 nm, ΔF(area) 322-336 nm, read-out: KD for nucleotide ligands on H-NS.

Entries after “also recorded” stand apart in the source; their conditions may differ. Where two headings read alike, the source gives them in different places.

For orientation: Kd means the concentration at which binding is half-saturated. A word on the stoichiometry N: it is the number of molecules, sites or subunits per partner or assembly.

T2 sequence (P0ACF8 whole entry): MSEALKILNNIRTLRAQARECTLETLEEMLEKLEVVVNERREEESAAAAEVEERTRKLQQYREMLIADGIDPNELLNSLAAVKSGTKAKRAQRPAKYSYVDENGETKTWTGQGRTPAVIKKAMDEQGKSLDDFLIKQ

`Nc1nc2c(ncn2[C@@H]2O[C@H](COP(=O)(O)OP(=O)(O)OP(=O)(O)O)[C@@H](O)[C@H]2O)c(=O)[nH]1` [GTP]: the Kd is 35 ± 3 µM in series [1] and 120 ± 25 µM in series [2] (setting [4]).

`Nc1ncnc2c1ncn2[C@@H]1O[C@@H]2COP(=O)(O)O[C@H]2[C@H]1O` [cAMP] gave a Kd in series [2] of 270 ± 40 µM.

Turning to `Nc1nc2c(ncn2[C@@H]2O[C@@H]3COP(=O)(O)O[C@H]3[C@H]2O)c(=O)[nH]1` [cGMP], the Kd in series [1] came to 17 ± 1 µM.

For the molecule `Nc1ncnc2c1ncn2[C@@H]1O[C@H](COP(=O)(O)OP(=O)(O)OP(=O)(O)O)[C@@H](O)[C@H]1O` [ATP], the Kd in series [1] is 33 ± 4 µM. Further, the “KD for nucleotide ligands on H-NS” value in series [2] (H-NS 10 µM, 25 °C, 50 mM MOPS pH 7.5, excitation 280 nm, ΔF(area) 322-336 nm) is listed as “does not show a saturation curve; also recorded: did not show a saturation curve”.

`Nc1nc2c(ncn2[C@@H]2O[C@H](COP(=O)(O)OP(=O)(O)O)[C@@H](O)[C@H]2O)c(=O)[nH]1` [GDP]: the Kd turned out to be 62 ± 4 µM in series [1] and 72 ± 6 µM in series [2] (setting [4]).

B1: cyclic AMP receptor protein (CRP) from Escherichia coli (natural protein, E. coli K12 MG1655)
chain: MVLGKPQTDPTLEWFLSHCHIHKYPSKSTLIHQGEKAETLYYIVKGSVAVLIKDEEGKEMILSYLNQGDFIGELGLFEEGQERSAWVRAKTACEVAEISYKKFRQLIQVNPDILMRLSAQMARRLQVTSEKVGNLAFLDVTGRIAQTLLNLAKQPDAMTHPDGMQIKITRQEIGQIVGCSRETVGRILKMLEDQNLISAHGKTIVVYGTR
notes: cAMP receptor protein (CRP) of E. coli K12 MG1655; the gene was amplified by PCR from genomic DNA and cloned into pET21a(+) with NdeI and XhoI; About 24 kDa on SDS-PAGE; it is inferred from the vector and the Ni-NTA column; also called CAP; source: E. coli BL21 (DE3), pET21a(+), purified (Ni-NTA, desalting column)
For the molecule B1, the “stoichiometry N” value in series [3] was 2.
